Assay results from US10174035B2, “6-morpholinyl-2-pyrazolyl-9H-purine derivatives and their use as PI3K inhibitors” (Daiichi Sankyo Company, Limited, priority 2015, dated 2019).
pIC50: −log10 of the molar value. Converted amounts (≈) assume the structure as drawn. Read-outs that look alike come from different tables or passages of the source.

What was measured:
[1] = target: recombinant PI3K δ enzyme (Homo sapiens (Human), UniProt O00329); assay: In vitro enzyme assay (Kinase-Glo luminescent kinase assay), PI3Kδ; assay type: biochemical
In short: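 Each recombinant human PI3K isoform at 2.29 μg/mL with 60 μM PIP2 and 10 μM ATP in HEPES pH 7.4, NaCl, CHAPS, MgCl2, DTT, 2 hours at room temperature. Remaining ATP read by Kinase-Glo luminescence relative to no-enzyme blanks.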

[2] = system: IFN-γ release in mouse splenocytes; assay: Phytohaemagglutinin (PHA)-induced interferon (IFN)-gamma release in mouse splenocytes; set-up: species or system C57BL/6 mouse; conditions: Splenocyte, PHA (10 μg/ml) for 48 hours, IFN-γ by ELISA, read-out: Cell Based IC50
Description: Effect of compounds on mitogen-induced IFN-γ release in mouse splenocytes was used to evaluate their potency in cell-based assay system [Blood (2010) 115: 2203-2213; Current Protocols in Immunology (2004) 3.12.1-3.12.20].
Mouse splenocytes were obtained from the spleen of a C57BL/6 mouse and plated at a density of 0.25 million cells/well in a 96 well tissue culture plate. The effect of the compounds to inhibit IFN-γ release was evaluated by treating the splenocytes with various concentrations of the test compounds followed by stimulation with PHA (10 μg/ml) for 48 hours. The IFN-γ release in the cell culture supernatant was quantified by ELISA as per the manufacturer's protocol (BD Biosciences, #555138).

[3] = target: PI3Kα (Homo sapiens (Human), UniProt P42336); assay: In vitro enzyme assay (Kinase-Glo), selectivity, PI3Kα; assay type: biochemical; conditions: enzyme 2.29 μg/mL; ATP 10 μM; PIP2 60 μM; 2 hours
Description: (§1) The Kinase-Glo luminescent kinase assay kit (from Promega) was used to measure kinase activity. In this assay, amount of ATP remaining in solution following a kinase reaction is measured. The effect of compounds on PI3Kδ inhibition was carried out by adding 2.29 μg/ml of recombinant PI3K δ enzyme (Proteros, Germany) to reaction mixture containing assay buffer (50 mM HEPES, pH 7.4, 50 mM NaCl, 0.05% CHAPS) supplemented with 10 mM MgCl2, 5 mM DTT, 60 μM Phosphatidyl inositol bisphosphate (PIP2) and 10 μM ATP in the absence or presence of different concentrations of the compounds in a final volume of 15 μl/well, in a 384 well plate. The reaction mixture was incubated for 2 hours at room temperature. At the end of incubation period the equal volume of Kinase-Glo plus (Promega, V3772), was added per well and the luminescence was measured after incubating for 10 minutes at room temperature in dark. Results were calculated by measuring the luminescence units of test samples to blanks containing no enzyme.
(§2) The compounds of the present invention were tested for their selectivity for PI3Kδ over PI3Kα, PI3Kβ and PI3Kγ following the above assay using specific recombinant enzymes (Proteros, Germany) for each kinase. Assay condition of kinase assay (PI3Kα, PI3Kβ, PI3Kγ and PI3Kδ) was as follows. Enzyme: 2.29 μg/mL; ATP: 10 μM; PIP2 substrate: 60 μM and Reaction Time: 2 hours.

[4] = target: PI3Kβ (Homo sapiens (Human), UniProt P42338); assay: In vitro enzyme assay (Kinase-Glo), selectivity, PI3Kβ; assay type: biochemical; conditions: enzyme 2.29 μg/mL; ATP 10 μM; PIP2 60 μM; 2 hours
Description: as §1, §2

[5] = target: PI3Kγ (Homo sapiens (Human), UniProt P48736); assay: In vitro enzyme assay (Kinase-Glo), selectivity, PI3Kγ; assay type: biochemical; conditions: enzyme 2.29 μg/mL; ATP 10 μM; PIP2 60 μM; 2 hours
Description: The Kinase-Glo luminescent kinase assay kit (from Promega) was used to measure kinase activity. In this assay, amount of ATP remaining in solution following a kinase reaction is measured. […] The reaction mixture was incubated for 2 hours at room temperature. At the end of incubation period the equal volume of Kinase-Glo plus (Promega, V3772), was added per well and the luminescence was measured after incubating for 10 minutes at room temperature in dark. Results were calculated by measuring the luminescence units of test samples to blanks containing no enzyme.
The compounds of the present invention were tested for their selectivity for PI3Kδ over PI3Kα, PI3Kβ and PI3Kγ following the above assay using specific recombinant enzymes (Proteros, Germany) for each kinase. Assay condition of kinase assay (PI3Kα, PI3Kβ, PI3Kγ and PI3Kδ) was as follows.

[6] = Solubility in Japanese Pharmacopeia First Fluid (JP1) and Second Fluid (JP2); assay type: physicochemical; conditions: thermodynamic from solid, room temperature
Description: A 10 mmol/L solution of the test compound was prepared in DMSO and dispensed 100 μL of 10 mmol/L DMSO stock solutions into labeled glass tubes in duplicate, one for Japanese Pharmacopeia First Fluid (JP1) and second for Japanese Pharmacopeia Second Fluid (JP2). After evaporation of DMSO from each tube, 500 μL of JP1 and JP2 fluid were added in each tube, respectively. These tubes were sonicated for 1 minute and placed on shaker for 30 minutes with an interval of 30 seconds at every 5 minute. Tubes were placed in dark at room temperature for 1 hour and solution was filtered through membrane filter. The filtrate was diluted 2-fold and 10-fold. The resulting test solutions was analyzed and quantified against the standards using UPLC (standard preparation-10 mmol/L solution in DMSO is serially diluted with 50% aqueous acetonitrile solution to prepare 2 solutions; 100 μmol/L standard solution and 5 μmol/L standard solution).

[7] = enzyme 2.29 μg/mL, ATP 10 μM, PIP2 60 μM, 2 hours
[8] = pH 1.2, simulated gastric fluid, Japanese Pharmacopeia First Fluid (JP1), read-out: Solubility JP1
[9] = pH 6.8, aqueous buffer, Japanese Pharmacopeia Second Fluid (JP2), read-out: Solubility JP2

PI3Kβ, sequence (P42338 whole entry, species assumed): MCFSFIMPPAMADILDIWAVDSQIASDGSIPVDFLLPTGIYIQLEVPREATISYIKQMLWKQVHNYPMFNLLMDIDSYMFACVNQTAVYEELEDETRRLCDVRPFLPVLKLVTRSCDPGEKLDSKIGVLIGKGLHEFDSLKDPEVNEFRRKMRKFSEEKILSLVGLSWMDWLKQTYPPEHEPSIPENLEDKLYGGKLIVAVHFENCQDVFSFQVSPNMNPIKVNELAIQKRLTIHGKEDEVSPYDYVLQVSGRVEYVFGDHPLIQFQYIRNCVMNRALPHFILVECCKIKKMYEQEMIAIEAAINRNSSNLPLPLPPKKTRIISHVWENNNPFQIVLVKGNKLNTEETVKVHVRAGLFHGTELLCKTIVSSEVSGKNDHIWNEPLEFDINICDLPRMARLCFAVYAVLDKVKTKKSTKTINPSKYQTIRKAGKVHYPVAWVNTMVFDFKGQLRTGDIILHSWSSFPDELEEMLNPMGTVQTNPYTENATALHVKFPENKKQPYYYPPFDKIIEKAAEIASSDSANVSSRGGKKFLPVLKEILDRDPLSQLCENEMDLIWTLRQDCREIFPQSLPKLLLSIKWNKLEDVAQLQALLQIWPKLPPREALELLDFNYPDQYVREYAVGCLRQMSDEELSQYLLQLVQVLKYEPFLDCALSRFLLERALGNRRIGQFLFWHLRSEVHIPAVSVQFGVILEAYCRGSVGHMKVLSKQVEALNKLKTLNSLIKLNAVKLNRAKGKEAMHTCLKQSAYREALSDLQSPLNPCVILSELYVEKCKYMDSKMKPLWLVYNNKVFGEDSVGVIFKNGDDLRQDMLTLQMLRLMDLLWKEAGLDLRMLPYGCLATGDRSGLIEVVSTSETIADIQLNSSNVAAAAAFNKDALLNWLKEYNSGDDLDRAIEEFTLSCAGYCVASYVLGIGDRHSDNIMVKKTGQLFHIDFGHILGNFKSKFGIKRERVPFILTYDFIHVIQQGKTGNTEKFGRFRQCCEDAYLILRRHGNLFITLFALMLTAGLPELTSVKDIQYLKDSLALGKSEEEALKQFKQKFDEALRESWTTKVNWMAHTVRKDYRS
PI3Kβ, sequence (P27986 whole entry partner, species assumed): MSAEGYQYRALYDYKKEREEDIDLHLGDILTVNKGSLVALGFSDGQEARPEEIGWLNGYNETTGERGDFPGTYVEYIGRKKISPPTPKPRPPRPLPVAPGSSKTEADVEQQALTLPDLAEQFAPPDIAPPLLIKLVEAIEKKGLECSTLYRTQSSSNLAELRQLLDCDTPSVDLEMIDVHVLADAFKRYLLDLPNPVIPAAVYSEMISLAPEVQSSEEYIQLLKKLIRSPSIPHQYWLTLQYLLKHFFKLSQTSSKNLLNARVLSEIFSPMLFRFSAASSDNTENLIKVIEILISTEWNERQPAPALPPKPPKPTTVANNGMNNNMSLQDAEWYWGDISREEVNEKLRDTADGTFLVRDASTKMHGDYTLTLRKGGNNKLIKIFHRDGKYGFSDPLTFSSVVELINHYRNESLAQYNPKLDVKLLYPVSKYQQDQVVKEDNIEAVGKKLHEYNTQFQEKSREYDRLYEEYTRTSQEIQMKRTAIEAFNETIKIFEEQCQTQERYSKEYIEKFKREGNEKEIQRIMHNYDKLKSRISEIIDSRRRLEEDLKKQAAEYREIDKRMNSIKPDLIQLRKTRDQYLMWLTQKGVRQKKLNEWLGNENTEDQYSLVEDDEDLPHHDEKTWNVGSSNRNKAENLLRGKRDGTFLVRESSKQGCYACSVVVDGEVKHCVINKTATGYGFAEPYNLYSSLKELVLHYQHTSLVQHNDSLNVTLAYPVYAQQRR
recombinant PI3K δ enzyme, sequence (O00329 whole entry, species assumed, canonical isoform): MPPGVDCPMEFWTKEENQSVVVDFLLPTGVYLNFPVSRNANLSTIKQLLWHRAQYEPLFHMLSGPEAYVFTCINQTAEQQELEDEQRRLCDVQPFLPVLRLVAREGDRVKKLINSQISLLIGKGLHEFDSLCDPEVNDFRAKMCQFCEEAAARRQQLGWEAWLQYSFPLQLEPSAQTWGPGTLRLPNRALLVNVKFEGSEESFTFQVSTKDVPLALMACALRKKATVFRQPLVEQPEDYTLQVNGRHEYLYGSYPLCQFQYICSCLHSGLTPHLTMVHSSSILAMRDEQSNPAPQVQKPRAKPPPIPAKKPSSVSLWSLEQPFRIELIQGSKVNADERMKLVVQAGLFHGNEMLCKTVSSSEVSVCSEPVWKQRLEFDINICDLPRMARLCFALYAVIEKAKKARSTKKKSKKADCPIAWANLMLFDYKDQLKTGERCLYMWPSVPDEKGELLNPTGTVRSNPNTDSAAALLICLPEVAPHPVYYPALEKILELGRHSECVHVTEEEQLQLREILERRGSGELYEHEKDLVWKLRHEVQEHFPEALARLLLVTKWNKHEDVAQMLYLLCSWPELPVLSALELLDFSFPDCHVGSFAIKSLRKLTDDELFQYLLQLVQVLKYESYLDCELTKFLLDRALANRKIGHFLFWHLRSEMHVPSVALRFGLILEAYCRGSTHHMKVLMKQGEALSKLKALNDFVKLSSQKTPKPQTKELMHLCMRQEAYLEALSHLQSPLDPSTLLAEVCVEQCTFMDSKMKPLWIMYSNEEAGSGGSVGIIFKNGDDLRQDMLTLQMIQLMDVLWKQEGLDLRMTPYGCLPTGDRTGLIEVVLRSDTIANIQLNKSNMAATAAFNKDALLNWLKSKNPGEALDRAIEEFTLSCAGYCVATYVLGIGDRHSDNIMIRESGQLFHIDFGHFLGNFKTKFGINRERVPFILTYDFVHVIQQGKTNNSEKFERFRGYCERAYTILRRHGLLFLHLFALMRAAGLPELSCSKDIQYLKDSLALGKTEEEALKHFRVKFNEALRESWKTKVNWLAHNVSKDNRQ
recombinant PI3K δ enzyme, sequence (P27986 whole entry partner, species assumed, canonical isoform): as the sequence (P27986 whole entry partner, species assumed) above
PI3Kγ, sequence (P48736 whole entry, species assumed): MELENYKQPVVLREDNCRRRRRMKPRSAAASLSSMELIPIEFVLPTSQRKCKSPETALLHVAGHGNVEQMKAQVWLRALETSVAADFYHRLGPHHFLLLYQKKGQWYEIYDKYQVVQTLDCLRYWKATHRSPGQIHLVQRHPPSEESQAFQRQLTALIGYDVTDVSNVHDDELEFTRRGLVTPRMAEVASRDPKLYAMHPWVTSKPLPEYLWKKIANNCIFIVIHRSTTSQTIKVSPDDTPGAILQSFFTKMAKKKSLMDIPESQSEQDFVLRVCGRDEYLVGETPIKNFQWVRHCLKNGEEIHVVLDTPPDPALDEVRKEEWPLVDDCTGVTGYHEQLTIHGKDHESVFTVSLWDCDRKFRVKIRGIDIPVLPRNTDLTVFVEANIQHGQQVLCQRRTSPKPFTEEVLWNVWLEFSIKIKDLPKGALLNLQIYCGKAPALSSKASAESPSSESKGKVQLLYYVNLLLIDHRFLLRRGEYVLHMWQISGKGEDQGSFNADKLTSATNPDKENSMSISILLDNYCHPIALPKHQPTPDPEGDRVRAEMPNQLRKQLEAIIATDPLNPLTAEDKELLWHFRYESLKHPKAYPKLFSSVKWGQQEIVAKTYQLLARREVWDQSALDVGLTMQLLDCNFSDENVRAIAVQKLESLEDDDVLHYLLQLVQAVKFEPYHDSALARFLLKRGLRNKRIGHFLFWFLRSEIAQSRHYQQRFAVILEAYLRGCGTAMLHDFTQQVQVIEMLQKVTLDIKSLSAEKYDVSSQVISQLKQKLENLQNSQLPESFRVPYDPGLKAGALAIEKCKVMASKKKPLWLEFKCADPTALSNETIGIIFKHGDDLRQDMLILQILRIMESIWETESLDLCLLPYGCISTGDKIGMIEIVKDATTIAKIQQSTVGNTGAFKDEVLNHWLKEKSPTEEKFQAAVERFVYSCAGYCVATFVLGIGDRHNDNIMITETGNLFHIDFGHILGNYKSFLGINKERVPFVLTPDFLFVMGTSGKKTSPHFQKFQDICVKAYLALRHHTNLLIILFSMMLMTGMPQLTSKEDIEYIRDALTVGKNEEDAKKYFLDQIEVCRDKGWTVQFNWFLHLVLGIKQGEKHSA
PI3Kα, sequence (P42336 whole entry, species assumed): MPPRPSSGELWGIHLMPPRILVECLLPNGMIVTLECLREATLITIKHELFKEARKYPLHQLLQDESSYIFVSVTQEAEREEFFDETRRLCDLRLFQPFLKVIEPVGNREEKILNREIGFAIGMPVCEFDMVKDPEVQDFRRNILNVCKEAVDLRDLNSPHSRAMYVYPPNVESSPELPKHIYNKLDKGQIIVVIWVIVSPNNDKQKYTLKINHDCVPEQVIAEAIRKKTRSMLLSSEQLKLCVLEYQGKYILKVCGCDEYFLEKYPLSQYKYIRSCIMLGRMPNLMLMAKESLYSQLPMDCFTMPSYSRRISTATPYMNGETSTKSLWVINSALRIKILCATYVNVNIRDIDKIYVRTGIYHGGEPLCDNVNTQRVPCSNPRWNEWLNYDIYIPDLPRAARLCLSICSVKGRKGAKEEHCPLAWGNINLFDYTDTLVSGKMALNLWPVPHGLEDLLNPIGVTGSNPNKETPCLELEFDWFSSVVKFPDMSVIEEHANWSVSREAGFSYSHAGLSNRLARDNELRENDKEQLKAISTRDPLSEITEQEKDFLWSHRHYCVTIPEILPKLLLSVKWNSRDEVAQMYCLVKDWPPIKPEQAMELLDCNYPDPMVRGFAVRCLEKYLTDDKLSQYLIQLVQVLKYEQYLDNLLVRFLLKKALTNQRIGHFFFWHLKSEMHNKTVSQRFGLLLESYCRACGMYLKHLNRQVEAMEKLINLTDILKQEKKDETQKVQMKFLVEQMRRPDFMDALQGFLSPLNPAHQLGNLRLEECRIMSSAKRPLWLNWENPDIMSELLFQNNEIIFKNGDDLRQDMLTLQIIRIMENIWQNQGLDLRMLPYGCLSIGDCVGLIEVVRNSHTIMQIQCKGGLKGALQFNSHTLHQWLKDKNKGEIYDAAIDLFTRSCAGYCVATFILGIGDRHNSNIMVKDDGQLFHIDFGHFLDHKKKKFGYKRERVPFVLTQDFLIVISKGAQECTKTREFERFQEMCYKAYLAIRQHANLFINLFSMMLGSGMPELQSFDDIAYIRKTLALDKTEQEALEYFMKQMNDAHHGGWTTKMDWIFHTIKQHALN
PI3Kα, sequence (P27986 whole entry partner, species assumed): as the sequence (P27986 whole entry partner, species assumed) above

Row | SMILES | pIC50 [1] | pIC50 [1, 7] | pIC50 [2] | pIC50 [3] | pIC50 [4] | pIC50 [5] | solubility at 30 min [6, 8] | solubility at 30 min [6, 9]
1 | O=C(c1nc2c(N3CCOCC3)nc(-c3c[nH]nc3C(F)(F)F)nc2[nH]1)N1CCC(N2CCOCC2)CC1 [compound 19, [4-(Morpholin-4-yl)piperidin-1-yl]{6-(morpholin-4-yl)-2-[3-(trifluoromethyl)-1H-pyrazol-4-yl]-9H-purin-8-yl}methanone] | 7.89 | 7.89 | 6.72 | 5.39 | < 5.00 | 5.25 |  | 
2 | Cc1nn(C)cc1-c1nc(N2CCOCC2)c2nc(C(=O)N3CCC(N4CCOCC4)CC3)[nH]c2n1 [compound 41, [2-(1,3-Dimethyl-1H-pyrazol-4-yl)-6-(morpholin-4-yl)-9H-purin-8-yl][4-(morpholin-4-yl)piperidin-1-yl]methanone] | 7.85 | 7.85 | 6.65 | 5.05 | < 5.00 | 5.68 |  | 
3 | O=C(c1nc2c(N3CCOCC3)nc(-c3cn[nH]c3)nc2[nH]1)N1CCC(N2CCOCC2)CC1 [compound 42, [4-(Morpholin-4-yl)piperidin-1-yl][6-(morpholin-4-yl)-2-(1H-pyrazol-4-yl)-9H-purin-8-yl]methanone] |  |  |  |  |  |  | > 1510 µg/mL | 124 µg/mL (≈ 265 µM)
4 | CN1CCCC1CCNC(=O)c1nc2c(N3CCOCC3)nc(-c3cnn(C)c3)nc2[nH]1 (stereo not shown) [compound 64, 2-(1-Methyl-1H-pyrazol-4-yl)-N-{2-[1-methylpyrrolidin-2-yl]ethyl}-6-(morpholin-4-yl)-9H-purine-8-carboxamide] | 7.77 | 7.77 | 6.95 | 6.01 | < 5.00 | 5.21 |  | 
5 | Cn1cc(-c2nc(N3CCOCC3)c3nc(C(=O)NCCCN4CCOCC4)n(C)c3n2)cn1 [compound 67, 9-Methyl-2-(1-methyl-1H-pyrazol-4-yl)-6-(morpholin-4-yl)-N-[3-(morpholin-4-yl)propyl]-9H-purine-8-carboxamide] | 7.96 | 7.96 | 7.57 | < 6.00 | < 5.00 | < 6.00 |  | 
6 | Cn1cc(-c2nc(N3CCOCC3)c3nc(C(=O)NCCCN4CCCC4=O)[nH]c3n2)cn1 [compound 68, 2-(1-Methyl-1H-pyrazol-4-yl)-6-(morpholin-4-yl)-N-[3-(2-oxopyrrolidin-1-yl)propyl]-9H-purine-8-carboxamide] | 7.77 | 7.77 | 6.53 | < 6.00 | < 5.00 | < 6.00 |  | 
7 | O=C(c1nc2c(N3CCOCC3)nc(-c3cn[nH]c3)nc2[nH]1)N1CCC2(CC1)COC2 [compound 72, [6-(Morpholin-4-yl)-2-(1H-pyrazol-4-yl)-9H-purin-8-yl](2-oxa-7-azaspiro[3.5]non-7-yl)methanone] | 7.74 | 7.74 | 6.48 | < 6.00 | < 5.00 | < 6.00 |  | 
8 | C[C@@H]1CN(CCCNC(=O)c2nc3c(N4CCOCC4)nc(-c4cnn(C)c4)nc3[nH]2)C[C@H](C)O1 [compound 75, N-{3-[cis-2,6-dimethylmorpholin-4-yl]propyl}-2-(1-methyl-1H-pyrazol-4-yl)-6-(morpholin-4-yl)-9H-purine-8-carboxamide] | 7.74 |  | 7.08 | < 6.00 | < 5.00 | < 6.00 |  | 
9 | Cn1cc(-c2cc(N3CCOCC3)c3nc(C(=O)N4CCC(N5CCOCC5=O)CC4)[nH]c3n2)cn1 [compound 77, 4-(1-{[5-(1-Methyl-1H-pyrazol-4-yl)-7-(morpholin-4-yl)-3H-imidazo[4,5-b]pyridin-2-yl]carbonyl}piperidin-4-yl)morpholin-3-one] | 8.05 |  |  |  |  |  | 1430 µg/mL (≈ 2890 µM) | 251 µg/mL (≈ 508 µM)

More lines, now with the values ahead:

Row | pIC50 [1] | pIC50 [1, 7] | pIC50 [2] | pIC50 [3] | pIC50 [4] | pIC50 [5] | solubility at 30 min [6, 8] | solubility at 30 min [6, 9] | SMILES
10 | 7.80 | 7.80 | 6.09 | < 6.00 | < 5.00 | 6.23 |  |  | Cn1cc(-c2nc(N3CCOCC3)c3nc(C(=O)N4CCC(C(C)(C)O)CC4)[nH]c3n2)cn1 [compound 14, [4-(2-Hydroxypropan-2-yl)piperidin-1-yl][2-(1-methyl-1H-pyrazol-4-yl)-6-(morpholin-4-yl)-9H-purin-8-yl]methanone]
11 | 7.70 | 7.70 | 7.89 | < 6.00 | < 5.00 | < 6.00 |  |  | Cn1cc(-c2nc3[nH]c(C(=O)N4CCC5(CC4)COC5)nc3c(N3CCOCC3)c2F)cn1 [compound 79, [6-Fluoro-5-(1-methyl-1H-pyrazol-4-yl)-7-(morpholin-4-yl)-3H-imidazo[4,5-b]pyridin-2-yl](2-oxa-7-azaspiro[3.5]non-7-yl)methanone]
12 | 7.96 | 7.96 | 6.46 | < 6.00 | < 5.00 | < 6.00 |  |  | Cn1cc(-c2nc3[nH]c(C(=O)N4CCN(C(C)(C)C(N)=O)CC4)nc3c(N3CCOCC3)c2F)cn1 [compound 82, 2-(4-{[6-Fluoro-5-(1-methyl-1H-pyrazol-4-yl)-7-(morpholin-4-yl)-3H-imidazo[4,5-b]pyridin-2-yl]carbonyl}piperazin-1-yl)-2-methylpropanamide]
13 | 7.72 | 7.72 | 5.90 | < 6.00 | < 5.00 | < 6.00 |  |  | Cc1nn(C)cc1-c1nc2[nH]c(C(=O)N3CCC(C(N)=O)CC3)nc2c(N2CCOCC2)c1F [compound 85, 1-{[5-(1,3-Dimethyl-1H-pyrazol-4-yl)-6-fluoro-7-(morpholin-4-yl)-3H-imidazo[4,5-b]pyridin-2-yl]carbonyl}piperidine-4-carboxamide]
14 | 7.57 | 7.57 | 6.65 | < 6.00 | < 5.00 | 5.07 |  |  | Cc1nn(C)cc1-c1nc2[nH]c(C(=O)N3CCC(O)CC3)nc2c(N2CCOCC2)c1F [compound 86, [5-(1,3-Dimethyl-1H-pyrazol-4-yl)-6-fluoro-7-(morpholin-4-yl)-3H-imidazo[4,5-b]pyridin-2-yl](4-hydroxypiperidin-1-yl)methanone]
15 | 8.22 | 8.22 | 7.37 | < 5.00 | < 5.00 | < 5.00 |  |  | Cn1cc(-c2nc3[nH]c(C(=O)N4CCC(N5CCOCC5)CC4)nc3c(N3CCOCC3)c2F)cn1 [compound 98, [6-Fluoro-5-(1-methyl-1H-pyrazol-4-yl)-7-(morpholin-4-yl)-3H-imidazo[4,5-b]pyridin-2-yl][4-(morpholin-4-yl)piperidin-1-yl]methanone]
